Test system: IL-8
Assay: Glucocorticoid transrepression assay, IL-8 inhibition (TR)
Format: cell-based
Details: Homo sapiens, Table 1, NCl-H292 cells, TNFα 10 ng/ml; for Emax: read-out: IL-8 inhibition (TR) Emax % inhibition
Experimental: Human Lung epithelial cell line NCl-H292 cells were dissociated from stock flask using 0.05% trypsin/0.53 mM EDTA. Cells were suspended in complete medium and counted. Cells were plated in 96-well flat-bottom plates at 20K cells /well in 0.2 ml/well. Plates were incubated for 24-48 hours until cells were between 75-90% confluent. Medium was aspirated and replaced with medium containing various concentrations of steroids or antagonists. After 1 hour incubation at 37°, TNFα (10 ng/ml final concentration in 0.2 ml) was added and the cells incubated overnight. Control wells with and without TNF were included on each plate, as well as wells with TNF in addition to a maximum (10 μM) concentration of dexamethasone. The cell culture medium was sampled and IL-6 and IL-8 cytokine production was measured using the MSD Multi-Spot immunoassay.

Row | SMILES | Emax [%] | IC50 [nM]
1 | CC12Cc3cnn(C(C)(C)C)c3C=C1CCC1C2[C@@H](O)CC2(C)C1CC[C@]2(O)C(=O)CSc1nc2cccnc2s1 (stereo partly drawn) [Compound 64] | < 60 | –
2 | CC12Cc3cnn(C(C)(C)C)c3C=C1CCC1C2[C@@H](O)CC2(C)C1CC[C@]2(O)C(=O)CSc1nc2ncccc2o1 (stereo partly drawn) [Compound 65] | < 60 | –
3 | CC12Cc3cnn(C(C)(C)C)c3C=C1CCC1C2[C@@H](O)CC2(C)C1CC[C@]2(O)C(=O)CSc1ccccn1 (stereo partly drawn) [Compound 66] | < 60 | –
4 | CC12Cc3cnn(C(C)(C)C)c3C=C1CCC1C2[C@@H](O)CC2(C)C1CC[C@]2(O)C(=O)CSc1ccc2ccccc2n1 (stereo partly drawn) [Compound 67] | < 60 | –
5 | CC12Cc3cnn(C(C)(C)C)c3C=C1CCC1C2[C@@H](O)CC2(C)C1CC[C@]2(O)C(=O)CSc1nc2ccccc2[nH]1 (stereo partly drawn) [Compound 68] | < 60 | –
6 | CC12Cc3cnn(C4CCOCC4)c3C=C1CCC1C2[C@@H](O)CC2(C)C1CC[C@]2(O)C(=O)CSc1nc2ccccc2s1 (stereo partly drawn) [Compound 69] | 70 to 80 | 66 to 400
7 | Cn1c(SCC(=O)[C@@]2(O)CCC3C4CCC5=Cc6c(cnn6C6CCOCC6)CC5(C)C4[C@@H](O)CC32C)nc2ccccc21 (stereo partly drawn) [Compound 70] | > 80 | 21 to 65
8 | CC12Cc3cnn(C4CCOCC4)c3C=C1CCC1C2[C@@H](O)CC2(C)C1CC[C@]2(O)C(=O)CSc1nc2ncccc2o1 (stereo partly drawn) [Compound 72] | > 80 | 21 to 65
9 | CC12Cc3cnn(C4CCOCC4)c3C=C1CCC1C2[C@@H](O)CC2(C)C1CC[C@]2(O)C(=O)CSc1ccccn1 (stereo partly drawn) [Compound 73] | > 80 | 0.06 to 20
10 | CC12Cc3cnn(C4CCOCC4)c3C=C1CCC1C2[C@@H](O)CC2(C)C1CC[C@]2(O)C(=O)CSc1nc2ccccc2[nH]1 (stereo partly drawn) [Compound 75] | < 60 | –
11 | Cc1ccccc1-n1ncc2c1C=C1CCC3C([C@@H](O)CC4(C)C3CC[C@]4(O)C(=O)CSc3nc4ccccc4s3)C1(C)C2 (stereo partly drawn) [Compound 76] | < 60 | –
12 | Cc1ccccc1-n1ncc2c1C=C1CCC3C([C@@H](O)CC4(C)C3CC[C@]4(O)C(=O)CSc3nc4ccccc4n3C)C1(C)C2 (stereo partly drawn) [Compound 77] | < 60 | –
13 | Cc1ccccc1-n1ncc2c1C=C1CCC3C([C@@H](O)CC4(C)C3CC[C@]4(O)C(=O)CSc3nc4cccnc4s3)C1(C)C2 (stereo partly drawn) [Compound 78] | < 60 | –
14 | Cc1ccccc1-n1ncc2c1C=C1CCC3C([C@@H](O)CC4(C)C3CC[C@]4(O)C(=O)CSc3nc4ncccc4o3)C1(C)C2 (stereo partly drawn) [Compound 79] | < 60 | –
15 | Cc1ccccc1-n1ncc2c1C=C1CCC3C([C@@H](O)CC4(C)C3CC[C@]4(O)C(=O)CSc3ccccn3)C1(C)C2 (stereo partly drawn) [Compound 80] | < 60 | –
16 | Cc1ccccc1-n1ncc2c1C=C1CCC3C([C@@H](O)CC4(C)C3CC[C@]4(O)C(=O)CSc3ccc4ccccc4n3)C1(C)C2 (stereo partly drawn) [Compound 81] | < 60 | –
17 | Cc1ccccc1-n1ncc2c1C=C1CCC3C([C@@H](O)CC4(C)C3CC[C@]4(O)C(=O)CSc3nc4ccccc4[nH]3)C1(C)C2 (stereo partly drawn) [Compound 82] | < 60 | –
18 | CC12Cc3cnn(-c4nc5ccccc5[nH]4)c3C=C1CCC1C2[C@@H](O)CC2(C)C1CC[C@]2(O)C(=O)CSc1nc2ccccc2s1 (stereo partly drawn) [Compound 83] | < 60 | –
19 | Cn1c(SCC(=O)[C@@]2(O)CCC3C4CCC5=Cc6c(cnn6-c6nc7ccccc7[nH]6)CC5(C)C4[C@@H](O)CC32C)nc2ccccc21 (stereo partly drawn) [Compound 84] | < 60 | –
20 | COc1ccc(-n2ncc3c2C=C2CCC4C([C@@H](O)CC5(C)C4CC[C@]5(O)C(=O)CSc4nc5ccccc5s4)C2(C)C3)cc1 (stereo partly drawn) [Compound 85] | 70 to 80 | 66 to 400
21 | COc1ccc(-n2ncc3c2C=C2CCC4C([C@@H](O)CC5(C)C4CC[C@]5(O)C(=O)CSc4nc5ccccc5n4C)C2(C)C3)cc1 (stereo partly drawn) [Compound 86] | 70 to 80 | 66 to 400
22 | COc1ccc(-n2ncc3c2C=C2CCC4C([C@@H](O)CC5(C)C4CC[C@]5(O)C(=O)CSc4nc5cccnc5s4)C2(C)C3)cc1 (stereo partly drawn) [Compound 87] | 60 to 70 | 66 to 400
23 | COc1ccc(-n2ncc3c2C=C2CCC4C([C@@H](O)CC5(C)C4CC[C@]5(O)C(=O)CSc4ccccn4)C2(C)C3)cc1 (stereo partly drawn) [Compound 88] | 60 to 70 | 66 to 400
24 | COc1ccc(-n2ncc3c2C=C2CCC4C([C@@H](O)CC5(C)C4CC[C@]5(O)C(=O)CSc4ccc5ccccc5n4)C2(C)C3)cc1 (stereo partly drawn) [Compound 89] | < 60 | –
25 | CC(C)(C)c1ccc(-n2ncc3c2C=C2CCC4C([C@@H](O)CC5(C)C4CC[C@]5(O)C(=O)CSc4nc5ccccc5s4)C2(C)C3)cc1 (stereo partly drawn) [Compound 90] | < 60 | –
26 | Cn1c(SCC(=O)[C@@]2(O)CCC3C4CCC5=Cc6c(cnn6-c6ccc(C(C)(C)C)cc6)CC5(C)C4[C@@H](O)CC32C)nc2ccccc21 (stereo partly drawn) [Compound 91] | < 60 | –

Row | SMILES | Emax [%] | IC50 [nM]
27 | CC(C)(C)c1ccc(-n2ncc3c2C=C2CCC4C([C@@H](O)CC5(C)C4CC[C@]5(O)C(=O)CSc4nc5cccnc5s4)C2(C)C3)cc1 (stereo partly drawn) [Compound 92] | < 60 | –
28 | CC(C)(C)c1ccc(-n2ncc3c2C=C2CCC4C([C@@H](O)CC5(C)C4CC[C@]5(O)C(=O)CSc4ccccn4)C2(C)C3)cc1 (stereo partly drawn) [Compound 93] | < 60 | –
29 | CC12Cc3cnn(-c4ccc(F)cc4)c3C=C1CCC1C2[C@@H](O)CC2(C)C1CC[C@]2(O)C(=O)CSc1nc2ccc(O)cc2[nH]1 (stereo partly drawn) [Compound 94] | > 80 | 0.06 to 20
30 | CC12Cc3cnn(-c4ccc(F)cc4)c3C=C1CCC1C2[C@@H](O)CC2(C)C1CC[C@]2(O)C(=O)CSc1nc(-c2ccccc2)c(-c2ccccc2)o1 (stereo partly drawn) [Compound 96] | > 80 | 66 to 400
31 | Cc1ccnc(SCC(=O)[C@@]2(O)CCC3C4CCC5=Cc6c(cnn6-c6ccc(F)cc6)CC5(C)C4[C@@H](O)CC32C)n1 (stereo partly drawn) [Compound 97] | > 80 | 0.06 to 20
32 | CC12Cc3cnn(-c4ccc(F)cc4)c3C=C1CCC1C2[C@@H](O)CC2(C)C1CC[C@]2(O)C(=O)CSc1ncnc2ccccc12 (stereo partly drawn) [Compound 98] | > 80 | 0.06 to 20
33 | CC12Cc3cnn(-c4ccc(F)cc4)c3C=C1CCC1C2[C@@H](O)CC2(C)C1CC[C@]2(OC(=O)c1ccco1)C(=O)CSc1nc2ncccc2o1 (stereo partly drawn) [Compound 99] | > 80 | 0.06 to 20
34 | Cn1nnnc1SCC(=O)[C@@]1(O)CCC2C3CCC4=Cc5c(cnn5-c5ccc(F)cc5)CC4(C)C3[C@@H](O)CC21C (stereo partly drawn) [Compound 100] | > 80 | 0.06 to 20
35 | Cc1cc(C)nc(SCC(=O)[C@@]2(O)CCC3C4CCC5=Cc6c(cnn6-c6ccc(F)cc6)CC5(C)C4[C@@H](O)CC32C)n1 (stereo partly drawn) [Compound 101] | > 80 | 0.06 to 20
36 | CC12Cc3cnn(-c4ccc(F)cc4)c3C=C1CCC1C2[C@@H](O)CC2(C)C1CC[C@]2(O)C(=O)CSc1nc2ccc(N)cc2s1 (stereo partly drawn) [Compound 102] | > 80 | 0.06 to 20
37 | COc1ccc2nc(SCC(=O)[C@@]3(O)CCC4C5CCC6=Cc7c(cnn7-c7ccc(F)cc7)CC6(C)C5[C@@H](O)CC43C)sc2c1 (stereo partly drawn) [Compound 103] | > 80 | 0.06 to 20
38 | CC12Cc3cnn(-c4ccc(F)cc4)c3C=C1CCC1C2[C@@H](O)CC2(C)C1CC[C@]2(O)C(=O)COc1nc2ccccc2o1 (stereo partly drawn) [Compound 104] | > 80 | 0.06 to 20
39 | CC12Cc3cnn(-c4ccc(F)cc4)c3C=C1CCC1C2[C@@H](O)CC2(C)C1CC[C@]2(O)C(=O)COc1nc2ccccc2[nH]1 (stereo partly drawn) [Compound 111] | > 80 | 0.06 to 20
40 | Cn1c(OCC(=O)[C@@]2(O)CCC3C4CCC5=Cc6c(cnn6-c6ccc(F)cc6)CC5(C)C4[C@@H](O)CC32C)nc2ccccc21 (stereo partly drawn) [Compound 112] | > 80 | 0.06 to 20
41 | CC12Cc3cnn(-c4ccc(F)cc4)c3C=C1CCC1C2[C@@H](O)CC2(C)C1CC[C@]2(O)C(=O)COc1nccc2ccccc12 (stereo partly drawn) [Compound 114] | > 80 | 0.06 to 20
42 | CC12Cc3cnn(-c4ccccc4)c3C=C1CCC1C2[C@@H](O)CC2(C)C1CC[C@]2(O)C(=O)COc1ccc2ccccc2c1 (stereo partly drawn) [Compound 117] | > 80 | 0.06 to 20
43 | CC12Cc3cnn(-c4ccccc4)c3C=C1CCC1C2[C@@H](O)CC2(C)C1CC[C@]2(O)C(=O)COc1nc2ccccc2[nH]1 (stereo partly drawn) [Compound 118] | > 80 | 0.06 to 20
44 | Cn1c(OCC(=O)[C@@]2(O)CCC3C4CCC5=Cc6c(cnn6-c6ccccc6)CC5(C)C4[C@@H](O)CC32C)nc2ccccc21 (stereo partly drawn) [Compound 119] | > 80 | 0.06 to 20
45 | CC12Cc3cnn(-c4ccccc4)c3C=C1CCC1C2[C@@H](O)CC2(C)C1CC[C@]2(O)C(=O)COc1nc2ccccc2s1 (stereo partly drawn) [Compound 120] | > 80 | 0.06 to 20
46 | CC12Cc3cn(-c4ccccc4)nc3C=C1CCC1C2[C@@H](O)CC2(C)C1CC[C@]2(O)C(=O)COc1nc2ccccc2s1 (stereo partly drawn) [Compound 121] | < 60 | –
47 | CC12Cc3cnn(-c4ccccc4)c3C=C1CCC1C2[C@@H](O)CC2(C)C1CC[C@]2(O)C(=O)COc1ccccn1 (stereo partly drawn) [Compound 122] | > 80 | 0.06 to 20
48 | Cn1c(SCC(=O)[C@@]2(O)CCC3C4CCC5=Cc6c(cnn6-c6ccc(F)cc6)CC5(C)C4[C@@H](O)CC32C)nc2cc(S(N)(=O)=O)ccc21 (stereo partly drawn) [Compound 123] | > 80 | 0.06 to 20
49 | CC12Cc3cnn(C4CCCCC4)c3C=C1CCC1C2[C@@H](O)CC2(C)C1CC[C@]2(O)C(=O)CSc1ncccn1 (stereo partly drawn) [Compound 126] | > 80 | 0.06 to 20
50 | Cc1nc(SCC(=O)[C@@]2(O)CCC3C4CCC5=Cc6c(cnn6C6CCCCC6)CC5(C)C4[C@@H](O)CC32C)sc1C (stereo partly drawn) [Compound 130] | > 80 | 0.06 to 20
51 | CC12Cc3cnn(C4CCCCC4)c3C=C1CCC1C2[C@@H](O)CC2(C)C1CC[C@]2(O)C(=O)CSc1nc(-c2ccccc2)cs1 (stereo partly drawn) [Compound 133] | > 80 | 21 to 65

— US20120171126A1, “NOVEL [3,2-c] HETEROARYL STEROIDS AS GLUCOCORTICOID RECEPTOR AGONISTS COMPOSITIONS AND USES THEREOF” (priority 2009, published 2012)
